Laboratory results taken from US10143668B2, “Hydroxy-substituted amino and ammonium derivatives and their medical use” (GRI BIO, INC., priority 2011, dated 2018).
Where “and” joins values, the source holds several entries; their conditions need not be identical. Identical values can stand only once. Marks after values point to notes of the source that are not given here.

Test system: allergic contact dermatitis response in mice
Test: Allergic contact dermatitis (TDI) model in mice, mouse ear swelling test
Assay type: in vivo
Procedure: The anti-inflammatory and anti-allergic effects of compound 1a were assessed in a mouse model of allergic contact dermatitis, a response driven primarily by T helper type 2 (Th2) cells. […] In this model, an allergic dermatitis response is obtained by sensitizing mice to TDI and subsequently challenging them with antigen by topical administration onto the ears. A quantitative assessment of anti-inflammatory and anti-allergic effects of topically or orally administered test compounds is possible by measuring the resulting ear swelling.
Female BALB/c-mice were obtained from Charles River (Sulzfeld, Germany) at age 8 weeks. All animals were housed in groups of eight per cage at 22° C. with a 12 h light/dark-cycle. Water and a standard diet (Altromin, Lage/Lippe, Germany) were available ad libitum. All animals were acclimatized for one week before experimental procedures were commenced.
Experimental procedures for BALB/c mice housing, TDI sensitization and challenge, and measurement of ear thickness were performed as previously described (Baumer et al., J Pharm Pharmacol. 55:1107-1114 (2003)) with the following modifications. For active sensitization, 100 μL of 5% (w/v) TDI was administered to the shaved and stripped abdominal epidermis on day one, and for the next three consecutive days, 50 μL of 5% (w/v) TDI was applied. The allergic reaction was boosted 21 days later by application of 50 μL of 0.5% (w/v) TDI. For the examination of test compound effects, the left ears were used for the TDI challenge (20 μL of 0.5% in acetone) and ear thickness measured 3 h before and 24 h after challenge.
Administration time: to determine optimal time for administration treatment groups were treated orally by gavage with 100 mg/kg of compound 1a (suspended in 0.5% tylose, 10 mL/kg) 1, 4 or 16 h before topical TDI challenge. One group was treated with 100 mg/kg miltefosine orally, 16 h before challenge (based on available data for optimal administration time for miltefosine) and vehicle treated mice received tylose (10 mL/kg) orally, 4 h before challenge.
Comparison with dexamethasone: one group of mice was treated orally with compound 1a at 100 mg/kg suspended in 0.5% tylose, 4 h before topical TDI challenge. Vehicle treated mice received 0.5% tylose orally 4 h before challenge. As a positive control, dexamethasone was administered in saline solution at 1 mg/kg or 3 mg/kg, 2 h and 30 min before challenge and 1 h after challenge. The dose and dosing scheme for dexamethasone was based on previous experience showing a maximal effect in this model.
[…] The solution was applied, 2 h before topical TDI challenge by administration of 10 μl onto each of the inner and outer surfaces of the left ears. A vehicle group (n=5) was treated with propyleneglycol. As a positive control, diflorasone diacetate was administered at 0.01% (low dose) and 0.05% (high dose) in 20 μl acetone, 2 h before challenge. A basal control group was left untreated.
Mean and standard error of the mean (SEM) were calculated from individual ear edema values. Statistical evaluation was a one-way analysis of variance (ANOVA) (if the test for normal distribution was passed) or the Kruskal-Wallis one-way ANOVA on Ranks (if the normal distribution test failed). Both were followed by a post-hoc test (Dunnett's method or Dunn's test, respectively). A p<0.05 was considered to be significant.

**Q.** Which toxicity (100 mg/kg oral) does the source give for `CCCCCCCCCCCCCC[N+](C)(C)CC(=O)N(C)C[C@H](O)[C@@H](O)[C@H](O)[C@H](O)CO` [Compound 1a, N-(2-(Dimethyl(tetradecyl)ammonio)acetyl)-N-methyl-D-glucamine chloride] here?
**A.** no toxicity

**Q.** What about the “inhibition relative to the highest dose of dexamethasone” value (100 mg/kg oral vs dexamethasone 3 mg/kg) of the same compound?
**A.** 37%

**Q.** And the “Inhibition of mouse ear swelling” value (administration time study, 100 mg/kg oral, 1 h before TDI challenge)?
**A.** 43.5* %

**Q.** And the “Inhibition of mouse ear swelling” value (administration time study, 100 mg/kg oral, 4 h before TDI challenge)?
**A.** 63% and 62.9*** %

**Q.** And the “Inhibition of mouse ear swelling” value (administration time study, 100 mg/kg oral, 16 h before TDI challenge)?
**A.** 43.5^§ %

**Q.** And the “Inhibition of mouse ear swelling” value (comparison with dexamethasone, 100 mg/kg oral, 4 h before challenge)?
**A.** 32%

**Q.** And the “Inhibition of mouse ear swelling” value (topical, 2% solution in propyleneglycol, 2 h before challenge)?
**A.** 68% and 67.7*** %

**Q.** What about the “Inhibition of mouse ear swelling” value (topical, 6% solution in propyleneglycol, 2 h before challenge) of the same compound?
**A.** 83% and 82.2*** %
